Here are results for five compounds from publication PMC9574867, “Discovery and Characterization of Synthesized and FDA-Approved Inhibitors of Clostridial and Bacillary Collagenases” (Journal of Medicinal Chemistry, 2022).

In brackets after ≈: the same amount, converted by molar mass. Entries after “also recorded” stand apart in the source; their conditions may differ. Read-outs that look alike come from different tables or passages of the source.

One series has as its target MMP-8. More on the design: method as in PMID 22529049, PMID 12217351, PMID 12217351. Conditions: known inhibitors, Figure 1a; cited from earlier work.
A further series relates to ColH. Particulars: Figure 1b, cited from earlier work.
Series [1] concerns the target T1, ColA-CU (Bacillus cereus, UniProt Q81BJ6). As to the kind of experiment: biochemical. The format is biochemical, B. cereus strain ATCC14579. Conditions: for inhibition at 100 µM: read-out: Percent inhibition of ColA-CU.
Another series has as its system B. cereus AH187. As to the kind of experiment: B. cereus growth inhibition assay. Format: cell-based. Particulars: Bacillus cereus, read-out: MIC50 (µM) AH187.
For series [2], the system named is B. cereus collagenases released in the NHDF infection model. The format is cell-based, B. cereus AH187.
In series [3] the target is T2, ColQ1-CU (Bacillus cereus, UniProt B9J3S4). Format: biochemical, B. cereus. Particulars: rapid dilution.
The next series has as its target T3, MMP-1 (Homo sapiens, UniProt P03956).
T3 construct: catalytic domains of three human MMPs; purchased Sigma-Aldrich
T3 sequence (P03956 98-276 limits assumed): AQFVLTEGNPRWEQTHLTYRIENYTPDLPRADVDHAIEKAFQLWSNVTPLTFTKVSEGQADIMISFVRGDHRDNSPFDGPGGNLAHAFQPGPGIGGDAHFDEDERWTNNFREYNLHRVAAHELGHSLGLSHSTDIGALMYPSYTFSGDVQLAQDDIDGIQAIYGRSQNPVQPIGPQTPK
As to the kind of experiment: MMP inhibition assay, MMP-1. Format: biochemical. The procedure:
(§1) To assess the selectivity of the compounds over human MMPs and on other bacterial collagenases, selected compounds were tested against ColG-CU and ColH-PD from C. histolyticum and ColA-CU from B. cereus strain ATCC14579. In addition, the compounds were tested on catalytic domains of three human MMPs, which are characterized by different depths of the S1′ binding pocket (MMP-1 (shallow), −2 (intermediate), and −3 (deep)). They were also tested against other important human off-targets, which are involved in gene expression and the processing of TNF-α; these include HDAC-3, -8, TACE (ADAM-17),[33],[34] and COX-1.
(§2) The MMP inhibition assay (Sigma-Aldrich, Saint Louise, MO) was performed as previously reported and in accordance with the manufacturer’s instructions. The fluorescence signals were measured in a CLARIOstar plate reader (BMG LABTECH, Ortenberg, Germany) at a concentration of 100 μM.

Series [4] is described as follows: in vitro. Conditions: human, NHDF cells (normal human dermal fibroblasts).
The target in series [5] is T2, ColQ1-CU. Kind of series: biochemical. More on the design: species or system B. cereus strain Q1.
The target of the next series is T4, MMP-2 (Homo sapiens, UniProt P08253).
T4 construct: catalytic domains of three human MMPs; purchased Sigma-Aldrich
Kind of series: MMP inhibition assay, MMP-2. Format: biochemical. The procedure:
as §1, §2

For a further series, the target named is T5, HDAC-8 (Homo sapiens, UniProt Q9BY41).
T5 sequence (Q9BY41 1-377): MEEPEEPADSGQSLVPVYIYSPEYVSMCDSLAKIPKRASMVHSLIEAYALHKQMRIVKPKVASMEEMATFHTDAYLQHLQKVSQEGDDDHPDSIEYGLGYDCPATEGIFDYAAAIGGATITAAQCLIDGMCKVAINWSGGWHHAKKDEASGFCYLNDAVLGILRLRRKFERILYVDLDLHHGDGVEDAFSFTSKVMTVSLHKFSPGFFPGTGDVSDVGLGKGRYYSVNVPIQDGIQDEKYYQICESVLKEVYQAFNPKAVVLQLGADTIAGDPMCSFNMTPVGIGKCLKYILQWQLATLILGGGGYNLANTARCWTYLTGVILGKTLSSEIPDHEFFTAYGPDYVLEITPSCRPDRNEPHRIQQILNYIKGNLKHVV
As to the kind of experiment: Human off-target inhibition, HDAC-8. Format: biochemical. The procedure:
as §1

Series [6] concerns the target T6, ColH-PD (Hathewaya histolytica, UniProt Q46085). As to the kind of experiment: biochemical. The format is biochemical, C. histolyticum. Particulars: for inhibition at 100 µM: read-out: Percent inhibition of ColH-PD.
Another series has as its target TACE (ADAM-17) (Homo sapiens, UniProt P78536). Kind of series: Human off-target inhibition, TACE. The format is biochemical. The method, then:
as §1

Series [7] relates to NHDF cells infected with B. cereus. As to the kind of experiment: NHDF infection model, cell morphology/attachment and fibrillar collagen (picrosirius red). Format: cell-based, human.
A further series has as its target ColG-CU (Hathewaya histolytica, UniProt Q9X721). As to the kind of experiment: biochemical. Conditions: for inhibition at 100 µM: read-out: Percent inhibition of ColG-CU. The format is biochemical, C. histolyticum.
Series [8] can be described thus: Stability of 27 with LC-MS in DMEM medium. The format is physicochemical. Conditions: 200 μM in DMEM, 37 °C, 5 h, 5% CO2, LC-MS. The method, then:
We also examined the hydroxamate compounds 27, 28, 29, 31, 32, and 33. […] Intrigued by the results of the hydroxamate compounds, we investigated their stability with LC-MS in the conditions of the NHDF infection model to obtain a potential explanation for the observed findings. We used 27 as a representative example for this compound class.
After the incubation, 2 μL of the compound was transferred to LC-MS vials containing 200 μL of acetonitrile and LC-MS spectra were measured. Three controls were included: (i) 27 in DMEO, (ii) 27 in DMEM without incubation, and (iii) DMEM medium.

Series [9] can be described thus: in vitro. Conditions: human, HEK293 cells (embryonal kidney).
The target of a further series is HDAC-3 (Homo sapiens, UniProt O15379). As to the kind of experiment: Human off-target inhibition, HDAC-3. Format: biochemical. The procedure: as §1
Series [10] can be described thus: in vitro. Conditions: dog, MDCK II cells (Madin–Darby canine kidney II).
The target of series [11] is T1, ColA-CU. The format is biochemical, B. cereus. Particulars: rapid dilution.
For series [12], the target named is T6, ColH-PD. Format: biochemical, C. histolyticum.
The target in a further series is T7, MMP-3 (Homo sapiens, UniProt P08254).
T7 construct: catalytic domains of three human MMPs; purchased Sigma-Aldrich
As to the kind of experiment: MMP inhibition assay, MMP-3. Format: biochemical. The method, then: as §1, §2

Another series deals with ColQ1-FL (Bacillus cereus, UniProt B9J3S4). The format is biochemical. Particulars: 1 mg/mL Col I, 50 ng ColQ1-FL, SDS-PAGE.
Series [13] in a line: in vitro. Particulars: human, HepG2 cells (hepatocellular carcinoma).
Series [14] concerns B. cereus AH187 infection. The format is in vivo, Galleria mellonella.
The subject of series [15] is Galleria mellonella larvae. As to the kind of experiment: Galleria mellonella larvae treated with compound only in PBS. The format is in vivo. Conditions: no bacteria. The procedure: Figure 8 Survival analysis of Galleria mellonella larvae treated with Bacillus cereus AH187 with and without 14 and tiludronate disodium. Each curve represents results of three independent experiments; the statistical difference between groups treated with 100, 50, and 25 μM of compound 14 and B. cereus AH187 and with the group treated only with B. cereus AH187 is p < 0.0001, p = 0.0039, and p = 0.0173, respectively. The statistical difference between groups treated with 100 μM tiludronate disodium and with B. cereus AH187 is p = 0.0032 (log-rank test). The survival rate for the larvae treated with compound 14 and tiludronate disodium in PBS was 100%.
G. mellonella larvae were purchased from a fishing store. Injections were carried out using an LA120 syringe pump (Landgraf Laborsysteme, Langenhagen, Germany) equipped with 1 mL Injekt-F tuberculin syringes (B. Braun, Melsungen, Germany) and Sterican 0.30 × […], 30 G × 1.5 needles (B. Braun). The larvae were divided into five groups depending on their treatment: (i) sterile PBS, (ii) no injection, (iii) only compound, (iv) BC AH187 bacterial suspension, and (v) BC AH187 bacterial suspension with compound. Larvae were incubated at 37 °C for 3 days and inspected twice daily. The total larvae used in all three experiments were 40 larvae per group.

The target of the next series is COX-1 (Homo sapiens, UniProt P23219). As to the kind of experiment: Human off-target inhibition, COX-1. The format is biochemical. The method, then:
as §1

T1 sequence (Q81BJ6 93-764): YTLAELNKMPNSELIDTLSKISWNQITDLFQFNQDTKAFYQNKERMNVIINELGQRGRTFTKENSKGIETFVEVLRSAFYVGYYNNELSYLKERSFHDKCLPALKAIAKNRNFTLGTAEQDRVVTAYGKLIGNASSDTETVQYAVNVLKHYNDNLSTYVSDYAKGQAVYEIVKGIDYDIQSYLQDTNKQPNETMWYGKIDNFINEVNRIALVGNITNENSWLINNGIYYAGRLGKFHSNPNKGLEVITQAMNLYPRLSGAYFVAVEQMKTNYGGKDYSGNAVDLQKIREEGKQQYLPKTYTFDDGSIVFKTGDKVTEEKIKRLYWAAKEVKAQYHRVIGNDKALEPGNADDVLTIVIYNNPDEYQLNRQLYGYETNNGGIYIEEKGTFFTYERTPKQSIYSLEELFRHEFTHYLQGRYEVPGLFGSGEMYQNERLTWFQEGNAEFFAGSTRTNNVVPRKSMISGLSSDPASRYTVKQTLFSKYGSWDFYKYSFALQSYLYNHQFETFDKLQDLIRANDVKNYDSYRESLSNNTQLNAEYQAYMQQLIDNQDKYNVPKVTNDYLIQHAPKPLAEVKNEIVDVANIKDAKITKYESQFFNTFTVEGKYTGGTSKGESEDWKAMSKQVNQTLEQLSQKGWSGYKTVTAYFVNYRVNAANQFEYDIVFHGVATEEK
T6 sequence (Q46085 331-721 limits assumed): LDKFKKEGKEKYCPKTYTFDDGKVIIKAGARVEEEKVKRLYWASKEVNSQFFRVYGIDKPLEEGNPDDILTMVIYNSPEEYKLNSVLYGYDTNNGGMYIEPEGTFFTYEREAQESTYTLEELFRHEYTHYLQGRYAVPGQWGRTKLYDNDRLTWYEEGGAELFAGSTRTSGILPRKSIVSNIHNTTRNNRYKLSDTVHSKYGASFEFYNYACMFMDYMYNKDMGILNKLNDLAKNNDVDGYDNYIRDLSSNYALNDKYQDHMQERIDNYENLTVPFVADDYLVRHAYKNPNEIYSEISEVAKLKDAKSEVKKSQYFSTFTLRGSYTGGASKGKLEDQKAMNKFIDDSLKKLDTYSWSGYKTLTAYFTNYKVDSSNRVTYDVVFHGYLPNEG
T2 sequence (B9J3S4 94-765 limits assumed): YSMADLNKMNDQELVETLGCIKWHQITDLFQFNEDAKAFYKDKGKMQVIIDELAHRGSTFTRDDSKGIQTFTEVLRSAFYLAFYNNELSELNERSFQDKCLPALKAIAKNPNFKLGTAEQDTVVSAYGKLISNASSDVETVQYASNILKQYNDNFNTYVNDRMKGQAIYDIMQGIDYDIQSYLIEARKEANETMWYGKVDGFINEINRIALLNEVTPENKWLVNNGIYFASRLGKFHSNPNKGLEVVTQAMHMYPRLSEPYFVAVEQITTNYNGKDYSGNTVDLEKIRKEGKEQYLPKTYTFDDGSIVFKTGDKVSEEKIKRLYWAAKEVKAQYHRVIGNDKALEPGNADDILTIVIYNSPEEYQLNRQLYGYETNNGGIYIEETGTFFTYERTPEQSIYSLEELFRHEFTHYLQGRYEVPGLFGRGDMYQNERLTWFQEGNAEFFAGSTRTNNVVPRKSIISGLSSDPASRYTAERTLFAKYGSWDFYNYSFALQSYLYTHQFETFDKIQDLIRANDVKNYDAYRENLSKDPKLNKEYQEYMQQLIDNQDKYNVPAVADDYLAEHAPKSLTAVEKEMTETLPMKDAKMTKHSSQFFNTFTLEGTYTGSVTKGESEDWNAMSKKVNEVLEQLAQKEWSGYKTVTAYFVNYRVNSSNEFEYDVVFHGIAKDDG
Sequence of ColG-CU (Q9X721 111-786): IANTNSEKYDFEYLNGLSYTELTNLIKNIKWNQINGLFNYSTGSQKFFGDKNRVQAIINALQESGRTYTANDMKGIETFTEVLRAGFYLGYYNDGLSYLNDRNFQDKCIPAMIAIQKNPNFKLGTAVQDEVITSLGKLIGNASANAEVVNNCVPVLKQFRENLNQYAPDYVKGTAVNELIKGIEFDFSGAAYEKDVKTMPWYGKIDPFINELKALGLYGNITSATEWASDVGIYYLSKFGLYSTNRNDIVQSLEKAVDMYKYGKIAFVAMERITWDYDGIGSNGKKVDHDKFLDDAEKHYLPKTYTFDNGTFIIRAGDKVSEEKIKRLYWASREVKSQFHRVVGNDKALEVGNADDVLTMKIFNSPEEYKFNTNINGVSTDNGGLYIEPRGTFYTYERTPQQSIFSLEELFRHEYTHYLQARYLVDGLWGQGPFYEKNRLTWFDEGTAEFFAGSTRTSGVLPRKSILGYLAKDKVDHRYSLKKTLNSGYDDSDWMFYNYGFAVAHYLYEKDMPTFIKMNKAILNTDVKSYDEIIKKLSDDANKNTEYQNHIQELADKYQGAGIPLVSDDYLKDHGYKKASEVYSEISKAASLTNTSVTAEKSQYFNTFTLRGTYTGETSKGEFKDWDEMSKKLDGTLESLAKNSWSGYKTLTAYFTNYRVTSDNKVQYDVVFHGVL
T7 sequence (P08254 100-272 limits assumed): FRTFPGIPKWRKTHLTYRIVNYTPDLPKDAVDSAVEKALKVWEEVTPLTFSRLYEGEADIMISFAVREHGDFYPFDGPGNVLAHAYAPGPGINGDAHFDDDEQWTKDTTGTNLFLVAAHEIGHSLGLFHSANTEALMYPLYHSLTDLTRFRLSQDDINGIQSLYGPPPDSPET
T4 sequence (P08253 110-444 limits assumed): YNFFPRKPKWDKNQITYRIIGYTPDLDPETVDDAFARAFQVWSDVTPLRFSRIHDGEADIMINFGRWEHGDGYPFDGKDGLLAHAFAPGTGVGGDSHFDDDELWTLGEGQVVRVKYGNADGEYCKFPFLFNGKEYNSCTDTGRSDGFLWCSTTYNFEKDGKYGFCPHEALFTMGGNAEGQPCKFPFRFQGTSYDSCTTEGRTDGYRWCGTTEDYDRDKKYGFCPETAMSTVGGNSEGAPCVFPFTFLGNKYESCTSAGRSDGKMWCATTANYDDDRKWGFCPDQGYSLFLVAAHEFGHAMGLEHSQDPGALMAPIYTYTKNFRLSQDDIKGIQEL
Sequence of TACE (ADAM-17) (P78536 215-824): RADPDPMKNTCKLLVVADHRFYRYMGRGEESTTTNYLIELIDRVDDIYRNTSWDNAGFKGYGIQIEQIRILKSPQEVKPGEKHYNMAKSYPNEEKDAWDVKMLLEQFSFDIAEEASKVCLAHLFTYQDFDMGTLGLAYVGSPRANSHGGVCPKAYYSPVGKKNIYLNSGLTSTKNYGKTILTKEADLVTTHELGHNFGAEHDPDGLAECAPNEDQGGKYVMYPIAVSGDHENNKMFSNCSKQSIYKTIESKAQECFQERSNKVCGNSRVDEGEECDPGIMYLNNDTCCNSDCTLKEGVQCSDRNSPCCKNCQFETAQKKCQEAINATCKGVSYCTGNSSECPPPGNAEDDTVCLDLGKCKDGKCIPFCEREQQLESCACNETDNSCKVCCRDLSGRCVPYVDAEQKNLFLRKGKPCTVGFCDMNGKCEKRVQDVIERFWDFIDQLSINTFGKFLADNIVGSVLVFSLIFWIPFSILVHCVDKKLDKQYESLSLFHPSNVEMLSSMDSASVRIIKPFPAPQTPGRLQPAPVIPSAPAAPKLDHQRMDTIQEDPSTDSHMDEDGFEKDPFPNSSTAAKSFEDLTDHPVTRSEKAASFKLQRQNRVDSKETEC
Sequence of HDAC-3 (O15379 whole entry): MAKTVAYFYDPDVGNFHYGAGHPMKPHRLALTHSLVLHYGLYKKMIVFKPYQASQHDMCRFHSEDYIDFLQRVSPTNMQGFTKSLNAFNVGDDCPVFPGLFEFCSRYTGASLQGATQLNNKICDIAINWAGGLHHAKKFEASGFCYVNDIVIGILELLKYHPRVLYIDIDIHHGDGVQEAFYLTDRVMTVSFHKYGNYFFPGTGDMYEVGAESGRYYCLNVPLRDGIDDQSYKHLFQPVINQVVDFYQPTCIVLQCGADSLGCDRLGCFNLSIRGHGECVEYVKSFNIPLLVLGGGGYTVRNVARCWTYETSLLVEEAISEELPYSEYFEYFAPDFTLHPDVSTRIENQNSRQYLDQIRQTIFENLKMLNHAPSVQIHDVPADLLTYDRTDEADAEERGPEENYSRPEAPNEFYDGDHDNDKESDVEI
Sequence of HDAC-3 (Q9Y618 395-489 partner limits assumed): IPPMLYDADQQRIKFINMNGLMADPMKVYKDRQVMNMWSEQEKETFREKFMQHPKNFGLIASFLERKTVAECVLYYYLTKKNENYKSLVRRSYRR
Sequence of ColQ1-FL (B9J3S4 94-965 limits assumed): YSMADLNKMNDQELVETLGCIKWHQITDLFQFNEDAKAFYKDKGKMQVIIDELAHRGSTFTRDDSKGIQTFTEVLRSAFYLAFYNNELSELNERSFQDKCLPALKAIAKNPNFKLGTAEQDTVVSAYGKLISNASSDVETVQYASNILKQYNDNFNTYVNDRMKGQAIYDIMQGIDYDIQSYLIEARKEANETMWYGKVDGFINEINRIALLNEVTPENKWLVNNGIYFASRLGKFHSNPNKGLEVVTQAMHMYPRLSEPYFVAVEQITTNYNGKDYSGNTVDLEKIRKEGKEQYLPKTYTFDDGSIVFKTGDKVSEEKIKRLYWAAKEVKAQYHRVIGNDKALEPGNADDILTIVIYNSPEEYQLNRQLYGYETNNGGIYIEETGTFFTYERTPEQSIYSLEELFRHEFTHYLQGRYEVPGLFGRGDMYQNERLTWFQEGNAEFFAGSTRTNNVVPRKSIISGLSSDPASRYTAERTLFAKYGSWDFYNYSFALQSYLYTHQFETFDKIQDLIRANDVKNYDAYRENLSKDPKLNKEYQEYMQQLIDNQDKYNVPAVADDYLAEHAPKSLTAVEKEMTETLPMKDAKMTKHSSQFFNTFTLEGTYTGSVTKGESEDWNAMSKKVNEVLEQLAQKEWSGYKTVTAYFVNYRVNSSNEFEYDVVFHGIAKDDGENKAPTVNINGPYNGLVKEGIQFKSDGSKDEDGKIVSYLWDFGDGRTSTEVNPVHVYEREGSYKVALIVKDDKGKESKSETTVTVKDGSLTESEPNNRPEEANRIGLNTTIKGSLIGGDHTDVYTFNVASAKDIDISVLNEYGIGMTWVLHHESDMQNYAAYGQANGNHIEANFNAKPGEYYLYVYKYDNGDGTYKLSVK

Consider `CC(NC(=O)C(Cc1ccccc1)NC(=O)NS(=O)(=O)c1ccc(F)cc1)C(=O)Nc1nnc(S)s1` (centres unmarked) [Compound 3], for which, on MMP-8, the Ki was 0.1 µM.
Regarding `CC(=O)c1ccc(NC(=O)CS)cc1` [Compound 4b], the IC50 with ColH (recently identified inhibitors) was 0.017 µM.
In the case of `CC(=O)c1ccc(N2C(=O)CC(S)C2=O)cc1` (centres unmarked) [Compound 5], in the series on ColH (100 μM), the “% of inhibition at 100 μM (ColH)” value was 96%.
As for `CC(=O)Nc1ccccc1OCc1cn(CCNC(=O)C(CC(C)C)C(=O)NO)nn1` (centres unmarked) [Compound 27, N-[2-[4-[(2-Acetamidophenoxy)methyl]triazol-1-yl]ethyl]-2-(hydroxycarbamoyl)-4-methyl-pentanamide], the Ki was 3.4 ± 4 µM on ColA-CU [1], 0.1 ± 0.02 µM at ColQ1-CU [5], 11.6 ± 0.4 µM at ColH-PD [6] and 31 ± 1 µM at ColG-CU. In addition, the inhibition at 100 µM on ColA-CU [1] was found to be 93 ± 2%; on ColQ1-CU [5] (read-out: % Inhibition (ColQ1-CU) Mean), 97 ± 2%; on ColH-PD [6], 84 ± 2%; on ColG-CU, 71 ± 7%. For the same compound, the MIC50 in the series on B. cereus AH187 (AH187, BHI medium, 37 °C, 48 h, 200–3 μM) is 200 µM (≈ 86.5 µg/mL). Moreover, the “Inhibitory effect on gelatinolytic activity of secreted collagenases” value in series [2] is “no inhibitory effect on the collagenase in the zymography at all tested concentrations; also recorded: no inhibition of the collagenase in the gelatin zymography was detected”. In addition, the “Reversibility of inhibition, ColQ1-CU” value on ColQ1-CU [3] is “rapidly reversible inhibitors”. For the same compound, the IC50 was above 100 µM on MMP-1; above 200 µM in “in vitro [4]”; 1.2 ± 0.1 µM at ColQ1-CU [5]; above 100 µM on MMP-2; above 100 µM against HDAC-8; above 100 µM on TACE (ADAM-17). Further, the IC50 was above 100 µM in the series “in vitro [9]”; above 100 µM on HDAC-3; above 200 µM in the series “in vitro [10]”; above 100 µM at MMP-3; above 100 µM in “in vitro [13]”. Also, the “Effect on cell morphology and ECM collagen content of infected NHDF cells” value in series [7] (B. cereus infection, 5 h) is “neither able to rescue cell morphology nor able to maintain the collagen content of the ECM”. The “Stability under NHDF infection assay conditions” value in [8] is reported as “no compound degradation; also recorded: confirmed, however, the stability”. Also, the “Reversibility of inhibition, ColA-CU” value on ColA-CU [11] is “rapidly reversible inhibitors”. In addition, on ColH-PD [12], the “Reversibility of inhibition, ColH” value is reported as “rapidly reversible inhibitors”. In addition, the “Concentration above which Col I chains were maintained” value on ColQ1-FL was above 0.8 µM.
Take `O=P([O-])(O)C(Sc1ccc(Cl)cc1)P(=O)([O-])O.[Na+].[Na+]` [Tiludronate disodium, reference compound]: the “Increase in survival of infected larvae” value in [14] (100 μM) is on record as 40%. Moreover, in [14] (37 °C, 3 days), the “Survival of infected larvae vs control without inhibitor” value is given as “ameliorated the survival of the larvae in a dose-dependent manner”. Further, the inhibition at 100 µM is 72 ± 2% at ColA-CU [1], 63 ± 3% against ColQ1-CU [5], 91 ± 2% at ColH-PD [6] and 28 ± 7% at ColG-CU. Further, in the series with B. cereus AH187 (AH187, 48 h), the MIC50 was determined as 200 µM. Also, in series [2], the “Concentration giving complete inhibition of gelatinolytic activity” value was found to be 100 µM. Further, the IC50 on MMP-1 is 50 ± 10 µM; at MMP-2 it was above 100 µM; against HDAC-8 it was above 100 µM; against TACE (ADAM-17) it was above 100 µM; on HDAC-3, above 100 µM; against COX-1, above 100 µM. Besides, the IC50 against MMP-3 was above 100 µM. Further, in [15], the “Survival rate of larvae treated with compound in PBS” value came to 100%. The “Concentration showing dose-dependent effects on NHDF morphology, fibrillar ECM collagen content and LDH release” value in [7] was at least 100 μM.
